From ChEMBL document CHEMBL1201862, “PubChem BioAssay data set” (2004) come the findings set out here.

Some test systems named below: Hs-578T; BT-549; MDA-N; HOP-18; DMS-114; KM-20L2; DMS-273; XF498.
Common to all, as to test: growth of human tumour cells (NCI), 48 h

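96-well plates; 48 h exposure; 5 concentrations. Endpoints by linear interpolation between flanking doses. Not reached: highest tested concentration assigned. GI50 is the concentration that inhibits growth by half.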 Calls of active or inactive are those of the source. No stated cut-off is given here; in the data, active = GI50 up to about 1.1 µM and inactive = higher. Where a SMILES comes first, the peptide text is derived from it.

As to `COC1=CC2(CC(OC)=C1OC)OC21COc2ccccc2C1=O` (configuration not stated), the GI50 in the assay with Hs-578T and with BT-549 was > 100 µM (inactive) throughout.

Take `CCN(CC)CCC(=O)c1ccc(Oc2ccc(F)cc2)cc1`: the GI50 with Hs-578T was 24.2 µM (inactive); in the assay with MDA-N, 18 µM (inactive); with BT-549, 18.3 µM (inactive).

Turning to `O=C(O)CCCc1nc2c(n1Cc1ccccc1)C(=O)c1ccccc1C2=O`, the GI50 in the assay on Hs-578T is 75.7 µM (inactive); with MDA-N, 22.5 µM (inactive).

In the case of `COc1cc2c(c(OC)c1OC)C(=O)[C@@H]1[C@H]2N1C(N)=O`, the results for the GI50 in the assay on Hs-578T and in the assay on MDA-N were 96.2 µM (inactive) and 88.5 µM (inactive), respectively.

For `O=C1c2c[nH]nc2C(c2ccccc2)N1c1ccccc1` (configuration not stated), the GI50 in the assay with Hs-578T, in the assay with MDA-N and with BT-549 was > 10 µM (inactive) throughout.

Consider `COc1ccc2[nH]c3c([N+](=O)[O-])ccc(Cl)c3c(=O)c2c1`, for which the GI50 in the assay on Hs-578T was 30.3 µM (inactive); in the assay with MDA-N, 21.2 µM (inactive); with BT-549, 17.2 µM (inactive).

On to `NCCCCC(N)C(=O)N1CCN(c2nc(N3CCCC3)c3nc(Cl)c(NCc4ccccc4)nc3n2)CC1` (configuration not stated), for which the values for the GI50 in the assay with Hs-578T, in the assay on MDA-N and in the assay with BT-549 were 19.4 µM (inactive), 17.7 µM (inactive) and 18.5 µM (inactive), respectively.

Take `O=C1COc2cccnc2N1CCCCO`: the GI50 in the assay with Hs-578T, with MDA-N and in the assay with BT-549 was > 100 µM (inactive) in each case.

Take `O=C(OCc1ccccc1[N+](=O)[O-])N1c2ccccc2[C@@]23O[C@]24CCC[C@H]3C#C/C=C\C#C[C@H]14`: the GI50 in the assay with Hs-578T was 66.5 µM (inactive); in the assay on MDA-N, > 100 µM (inactive); in the assay on BT-549, 49.5 µM (inactive).

`Cc1cc(-c2nc3cc(F)ccc3s2)ccc1NC(=O)[C@@H](N)CCCCN`: the GI50 in the assay with Hs-578T was 3.08 µM (inactive); in the assay with MDA-N, 1.77 µM (inactive); in the assay with BT-549 it was 12.9 µM (inactive).

As for `CCOC(=O)NC(=O)c1cn(CCCCCOC(=O)NCCCCCCNC(=O)OCCCCCn2cc(C(=O)NC(=O)OCC)c(=O)[nH]c2=O)c(=O)[nH]c1=O`, the GI50 in the assay with HOP-18, with DMS-114, in the assay with KM-20L2 and in the assay on DMS-273 was > 100 µM (inactive) each time.

Consider `Cc1cc2c(c(C(N)=O)c1C)-c1cccc(F)c1C2=O`, for which the GI50 was > 100 µM (inactive) with DMS-114, 57.3 µM (inactive) with XF498, > 100 µM (inactive) with KM-20L2 and > 100 µM (inactive) in the assay with DMS-273.

Regarding `CC(=O)Nc1cc2ccc(=O)oc2cc1Cl`, the GI50 with Hs-578T, with MDA-N and in the assay with BT-549 was > 100 µM (inactive) throughout.

With `COC1=C(N2CC2)C(=O)c2nc3n(c2C1=O)CCC3`, the GI50 with Hs-578T is 5.09 µM (inactive); in the assay with MDA-N it was 1.38 µM (inactive); in the assay with BT-549 it was 1.15 µM (inactive).

For `O=C1CNCCCN2CCN(CCCNCC(=O)Nc3ccc(cc3)S(=O)(=O)c3ccc(cc3)NC(=O)CNCCCN3CCN(CCCNCC(=O)Nc4ccc(cc4)S(=O)(=O)c4ccc(cc4)N1)CC3)CC2`, the GI50 in the assay with Hs-578T was > 45.4 µM (inactive); with MDA-N it was 19.3 µM (inactive); in the assay on BT-549 it was 30 µM (inactive).

On to `C=C1CC[C@@H](CCC2CCC3(OC2)O[C@]2(O)CC[C@@]3(C)OC2(C)C)C(C)(C)[C@H]1C/C=C1\CCOC1=O` (some centres not stated), for which the results for the GI50 in the assay with Hs-578T, with MDA-N and with BT-549 were 20.5 µM (inactive), 20 µM (inactive) and 11.7 µM (inactive), respectively.

For the molecule `CNC(=O)CCCN(C)C(=O)CCCCC(=O)N(C)C`, the values for the GI50 with Hs-578T, in the assay on MDA-N and in the assay with BT-549 were > 56.9 µM (inactive), > 60.8 µM (inactive) and > 62.8 µM (inactive), respectively.

For the molecule `NC(=O)C1CCCN1C(=O)C(N)Cc1ccccc1` (stereo not drawn) (H-Phe-Pro-NH2; configuration not given here), the GI50 with MDA-N was > 100 µM (inactive).

As to `OCCN(CCO)c1ccc2c(c1)Cc1ccccc1-2`, the values for the GI50 in the assay with Hs-578T and with MDA-N were 37.1 µM (inactive) and 50.6 µM (inactive), respectively.

In the case of `C#CCOCCCC(=O)O`, the GI50 with MDA-N and with BT-549 was > 100 µM (inactive) in each case.

Turning to `CC(OC(=O)NCn1cc(-c2ccccc2)nn1)c1ccccc1` (configuration not stated), the GI50 in the assay with BT-549 was 32.4 µM (inactive).

For `O=[N+]([O-])c1cc([As](Br)c2ccc(O)c([N+](=O)[O-])c2)ccc1O`, the GI50 in the assay on Hs-578T is 2.41 µM (inactive); with MDA-N, 1.53 µM (inactive); in the assay with BT-549, 1.88 µM (inactive).

Consider `CCN(CC)CCNc1ccc2ncn3c4ccccc4c(=O)c1c23`, for which the GI50 in the assay on HOP-18 is 10 µM (inactive); with DMS-114, 5.07 µM (inactive); in the assay on KM-20L2, 3.85 µM (inactive).

As to `CC(=O)OCC1OC(n2cnc3nc(Br)[nH]c(=O)c32)C(OC(C)=O)C1OC(C)=O` (configuration not stated), the GI50 with Hs-578T, in the assay on MDA-N and with BT-549 was > 100 µM (inactive) in each case.

As for `CC1(C)CCCCCCC2CC2CCCCCC(C)(C)C1=O` (configuration not stated), the figures for the GI50 with Hs-578T, with MDA-N and with BT-549 were > 100 µM (inactive), 88.3 µM (inactive) and > 100 µM (inactive), respectively.

As to `CO/N=C1\CC(NC(=O)CNC(=O)OC(C)(C)C)c2ccsc21` (configuration not stated), the values for the GI50 in the assay with Hs-578T, with MDA-N and with BT-549 were > 100 µM (inactive), 49.2 µM (inactive) and > 100 µM (inactive), respectively.

As for `O=C1/C(=C/c2cccc(Br)c2)Cc2ccccc21`, the GI50 was 29.4 µM (inactive) in the assay with Hs-578T, 54 µM (inactive) with MDA-N and 34.5 µM (inactive) with BT-549.

As to `COc1cc(/C=C/C(=O)OCCc2ccccc2)ccc1O`, the GI50 in the assay on Hs-578T is 25.6 µM (inactive); with MDA-N, 19.1 µM (inactive); with BT-549 it was 14.7 µM (inactive).

With `NN(CC(=O)O)CC(=O)O`, the GI50 with Hs-578T, in the assay on MDA-N and in the assay with BT-549 was > 100 µM (inactive) each time.

`C[C@]12CC[C@H]3[C@@H](CCC4=CC(=O)CC[C@@]43C)[C@@H]1CC[C@@H]2OC(=O)c1cccc2c(=O)c3ccccc3[nH]c12`: the GI50 in the assay with Hs-578T is 12.1 µM (inactive); in the assay with MDA-N, 42.1 µM (inactive); in the assay on BT-549, 58.1 µM (inactive).

Regarding `CC1c2c(Cl)nc3ccccc3c2Oc2c1c(Cl)nc1ccccc21`, the GI50 in the assay with HOP-18 was 7.21 µM (inactive); in the assay on DMS-114, 66.1 µM (inactive); in the assay on KM-20L2, > 100 µM (inactive); in the assay on DMS-273, 53.2 µM (inactive).

Consider `NCCN1C(=O)c2ccccc2C1(O)c1ccc(Cl)cc1` (configuration not stated), for which the GI50 was 16.2 µM (inactive) with Hs-578T, 18.2 µM (inactive) in the assay on MDA-N and 42.6 µM (inactive) with BT-549.

With `COc1ccc(OC)c2c(C)ccnc12`, the values for the GI50 with MDA-N and in the assay with BT-549 were 26.3 µM (inactive) and 27.4 µM (inactive), respectively.

With `Cc1nc(C(N)=S)sc1C(=O)C/C(=N/N)C(=O)Nc1ccc(Cl)cc1`, the GI50 in the assay with Hs-578T was 39.1 µM (inactive); in the assay on MDA-N, > 100 µM (inactive); in the assay on BT-549 it was > 100 µM (inactive).

For the molecule `Cc1cc(O)nc(NN2C(Cl)C(=O)C2c2ccc([N+](=O)[O-])cc2)n1` (configuration not stated), the GI50 in the assay with HOP-18 is 11.3 µM (inactive); in the assay with DMS-114, 8.07 µM (inactive); with KM-20L2 it was 17.1 µM (inactive); in the assay with DMS-273, 8.34 µM (inactive).

As for `COc1ccccc1N1C(=O)CSC1c1cccc(Oc2ccccc2)c1` (configuration not stated), the values for the GI50 in the assay on Hs-578T and with BT-549 were 20.9 µM (inactive) and 17.1 µM (inactive), respectively.

For `COc1cccc(N(CN2CC=CC2=O)C(C)=O)c1`, the GI50 in the assay on Hs-578T and in the assay on MDA-N was > 100 µM (inactive) in each case.

Take `CCOC(=O)c1nnsc1NN`: the GI50 was > 100 µM (inactive) in the assay with Hs-578T, 72.6 µM (inactive) with MDA-N and > 100 µM (inactive) in the assay with BT-549.

`CCOC(=O)c1nnc2c(C(=O)OCC)c3ccccc3n2c1N`: the GI50 was 7.16 µM (inactive) in the assay with Hs-578T, 4.36 µM (inactive) with MDA-N and 13.7 µM (inactive) in the assay on BT-549.

As to `CC(=O)O[C@H]1C[C@H]2C(=S)Nc3ccccc3C(=S)N2C1`, the GI50 with Hs-578T, with MDA-N and in the assay with BT-549 was > 100 µM (inactive) in each case.

Turning to `CC(=NNC(=S)Nc1cccc(C)c1)c1cccc(C(C)=NNC(=S)Nc2cccc(C)c2)n1`, the GI50 in the assay with Hs-578T was > 100 µM (inactive); in the assay with MDA-N, 42 µM (inactive).

`CC(=O)c1c(CO[N+](=O)[O-])[n+]([O-])c2ccccc2[n+]1[O-]`: the GI50 with Hs-578T is 41.1 µM (inactive); in the assay with BT-549, > 100 µM (inactive).

Turning to `COc1ccc(/N=N/c2c(C)c(C#N)c(=S)n(C3OC(COC(C)=O)C(OC(C)=O)C(OC(C)=O)C3OC(C)=O)c2C)cc1` (configuration not stated), the GI50 with Hs-578T is 23.3 µM (inactive); in the assay with MDA-N it was > 100 µM (inactive); with BT-549, > 100 µM (inactive).

With `CCOc1ccc(/C=C2\N=C(c3ccccc3)OC2=O)cc1`, the GI50 in the assay with Hs-578T and in the assay on BT-549 was > 100 µM (inactive) each time.

Turning to `COc1cc2c(cc1-c1coc3cc(O)ccc3c1=O)OCO2` [CUNEATIN], the GI50 was 22.2 µM (inactive) in the assay with Hs-578T, 48.9 µM (inactive) in the assay on MDA-N and 19.5 µM (inactive) with BT-549.

As to `Cc1ccc(S(=O)(=O)NNC(=O)c2sc(-c3nc(C)c(C(=O)NNS(=O)(=O)c4ccc(C)cc4)s3)nc2C)cc1`, the GI50 in the assay with KM-20L2 was > 100 µM (inactive).

On to `c1cc2nsnc2c2c[nH]cc12`, for which the GI50 is 48.1 µM (inactive) in the assay on Hs-578T, 71.4 µM (inactive) with MDA-N and 49.7 µM (inactive) in the assay on BT-549.

Turning to `COc1ccc(C2CC(=O)CC(c3ccc(OC)cc3)C23C(=O)NC(=S)NC3=O)cc1` (configuration not stated), the GI50 in the assay with MDA-N and with BT-549 was > 100 µM (inactive) throughout.

For the molecule `CCOC(=O)Cn1c(=O)c2cc(-c3ccccc3)cc3c(Cl)nc4c(OC)c(OC)cc1c4c32`, the GI50 in the assay with Hs-578T is 6.97 µM (inactive); in the assay on MDA-N, 17.7 µM (inactive); in the assay on BT-549, 18.5 µM (inactive).

Turning to `COC(=O)[C@H](Cc1ccccc1)NC(=O)OCC1OC(n2cc(C)c(=O)[nH]c2=O)CC1N=[N+]=[N-]` (some centres not stated), the GI50 in the assay with Hs-578T is 0.0617 µM (active); with MDA-N, > 100 µM (inactive); in the assay on BT-549 it was > 100 µM (inactive).

For `CC1(C)COC(c2cccc(C(=O)c3ccccc3)c2)=N1`, in the assay on MDA-N, the GI50 is 41 µM (inactive).

Take `COc1ccccc1/C=C\c1cnnc2ccccc12`: the GI50 was > 10 µM (inactive) in the assay with Hs-578T, 3.33 µM (inactive) with MDA-N and > 10 µM (inactive) with BT-549.

Consider `COc1ccccc1NC(=S)N/N=C1\C(=O)Nc2ccccc21`, for which the GI50 in the assay with Hs-578T and in the assay with MDA-N was > 100 µM (inactive) in each case.
